Experimental data: patent publication US20260274814A1, “THIENYL COMPOUNDS FOR THE TREATMENT OF A CENTRAL NERVOUS SYSTEM DISEASE OR DISORDER” (Coreterra Therapeutics, Inc., priority 2023, published 2026)
Counter-ions that a name gives are not always drawn. Like-named read-outs stand apart in the source and are kept apart here.

System: mice
Assay: Neuropharmacological Assay (SmartCube): automated behavioral signature of compound-treated mice compared with a database of reference drug classes
Type: in vivo
Conditions: for MED (minimal effective dose) / minimal effective dose / MED: i.p., that dose is shown; for minimal effective dose: Mus musculus, ip
From the text: Neurosci. 2011 Sep. 9; 5: 103 (doi: 10.3389/fnins.2011.00103) (“Roberds”). As reported in Roberds, because psychiatric diseases generally result from disorders of cell-cell communication or circuitry, intact systems are useful in detecting improvement in disease-relevant endpoints. These endpoints are typically behavioral in nature, often requiring human observation and interpretation. To facilitate testing of multiple compounds for behavioral effects relevant to psychiatric disease, PsychoGenics, Inc. (Tarrytown, NY, “PGI”) developed SmartCube™ an automated system in which behaviors of compound-treated mice are captured by digital video and analyzed with computer algorithms. (D. Brunner et al. Drug Discov. Today 2002, 7:S107-S112). PGI Analytical Systems uses data from SmartCube™ to compare the behavioral signature of a test compound to a database of behavioral signatures obtained using a large set of diverse reference compounds. (The composition of the database as well as validation of the method is further described in Roberds). In this way, the neuropharmacological effects of a test compound can be predicted by similarity to major classes of compounds, such as antipsychotics, anxiolytics and antidepressants.
The SmartCube™ system produces an activity signature indicating the probability that the activity of the test compound at the administered dose matches a given class of neuropharmacological agents. (See, e.g., Roberds, FIGS. 2 and 3). The test compound is simultaneously compared against multiple classes of agents; thus, a separate probability is generated for each behavioral effect measured (e.g., anxiolytic activity, analgesic activity, etc.). In table 2 below, these probabilities are reported for each behavioral effect measured as described in Table 1 below.
Provided compounds were dissolved in a mixture of Pharmasolve™ (N-methyl-2-pyrrolidone), polyethylene glycol and propylene glycol, and were injected i.p. 15 min. before the behavioral test. For each compound, injections were administered at 3 different doses. For each behavioral effect measured, results for the 3.0 mg/kg dose are presented. The potency of many of the compounds in the table was also determined in the SmartCube™ system. Test compounds were routinely examined at dose levels of 0.3, 1, 3 and 10 mg per kg (mpk), although the dose range was increased or decreased, if necessary, to obtain a full dose response curve. A compound's minimal effective dose (MED) is a measure of the compound's potency. The MED was defined as the dose (in mpk) having 45% or more total activity in SmartCube. If only one dose was tested, that dose is shown in the MED column of Table 2 even though the dose is not known to be the MED.

[1] = probability that activity matches this class of agents, 3.0 mg/kg i.p., 15 min before test
[2] = probability that activity matches this class of agents, 3.0 mg/kg i.p., 15 min before test, hydrochloride, 3 mg/kg
[3] = minimal effective dose: dose having 45% or more total activity in SmartCube, if only one dose tested, read-out: MED
[4] = SmartCube class probability, 3.0 mg/kg i.p., 15 min before test
[5] = SmartCube class probability, 3.0 mg/kg i.p., 15 min before test, 3 mg/kg
[6] = minimal effective dose: dose having 45% or more total activity in SmartCube, if only one dose tested
[7] = SmartCube class probability, 3.0 mg/kg i.p., 15 min before test, hydrochloride, 3 mg/kg
[8] = minimal effective dose: dose having 45% or more total activity in SmartCube, if only one dose was tested, read-out: MED
[9] = SmartCube probability class, 3.0 mg/kg dose, i.p. 15 min before the behavioral test
[10] = dose having 45% or more total activity in SmartCube, if only one dose was tested, hydrochloride

CNC1CCc2scc(Cl)c2C1 (single isomer, unassigned) [Compound 132, 3-chloro-N-methyl-4,5,6,7-tetrahydrobenzothiophen-5-amine hydrochloride]
MED (minimal effective dose) (dose having 45% or more total activity in SmartCube, if only one dose was tested): 3 mpk | AG [1]: ND (^ <4%) | AN [1]: ND (^ <4%) | AX [1]: ND (^ <4%) | CE [1]: ND (^ <4%) | HL [1]: ND (^ <4%) | SH [1]: ND (^ <4%) | AD [2]: ND (^ <4%) | AP [2]: + (≥4%) | MS [2]: ND (^ <4%) | PS [2]: + (≥4%) | UK [2]: ++ (≥24%)

CNC1COc2c(csc2C(F)(F)F)C1 (stereo not drawn) [Compound 260, N-methyl-7-(trifluoromethyl)-3,4-dihydro-2H-thieno[3,4-b]pyran-3-amine hydrochloride]
minimal effective dose [3]: 3 mg/kg | AD [4]: + (≥4%) | AG [4]: ND (^ <4%) | AN [4]: ND (^ <4%) | AP [4]: ND (^ <4%) | AX [4]: ND (^ <4%) | CE [4]: ND (^ <4%) | HL [4]: ND (^ <4%) | MS [4]: ND (^ <4%) | PS [4]: ND (^ <4%) | SH [4]: ND (^ <4%) | UK [4]: +++ (≥49%)

CN(C)C1CCc2csc(C(F)(F)F)c2C1 (single isomer, unassigned) [Compound 120, N,N-dimethyl-3-(trifluoromethyl)-4,5,6,7-tetrahydro-2-benzothiophen-5-amine hydrochloride]
minimal effective dose (dose having 45% or more total activity in SmartCube, if only one dose was tested, read-out: MED (minimal effective dose)): 3 mg/kg | AD [1]: ND (^ <4%) | AG [1]: ND (^ <4%) | AN [1]: ND (^ <4%) | AP [1]: ++++ (≥74%) | AX [1]: ND (^ <4%) | CE [1]: ND (^ <4%) | HL [1]: ND (^ <4%) | MS [1]: ND (^ <4%) | PS [1]: ND (^ <4%) | SH [1]: ND (^ <4%) | UK [1]: ND (^ <4%)

CNC1(C)COc2c(C)csc2C1.Cl (stereo not drawn) [Compound 239, N, 3,6-trimethyl-6,7-dihydro-5H-thieno[3,2-b]pyran-6-amine hydroachloride]
AG [4]: ND (^ <4%) | AN [4]: ND (^ <4%) | AP [4]: ND (^ <4%) | AX [4]: ND (^ <4%) | CE [4]: ND (^ <4%) | HL [4]: ND (^ <4%) | MS [4]: ND (^ <4%) | PS [4]: ND (^ <4%) | SH [4]: ND (^ <4%) | AD [5]: ND (^ <4%) | UK [5]: ++ (≥24%) | MED [6]: >3 mpk

CN(C)C1CCc2cscc2C1.Cl (single isomer, unassigned) [Compound 157, N,N-dimethyl-4,5,6,7-tetrahydro-2-benzothiophen-5-amine hydrochloride]
AD [4]: ND (^ <4%) | AG [4]: ND (^ <4%) | AN [4]: ND (^ <4%) | AP [4]: ND (^ <4%) | CE [4]: ND (^ <4%) | HL [4]: ND (^ <4%) | MS [4]: ND (^ <4%) | PS [4]: ND (^ <4%) | SH [4]: ND (^ <4%) | AX [7]: +++ (≥49%) | UK [7]: ND (^ <4%) | MED [6]: 3 mpk

CC1(N2CCCC2)CCc2sccc2C1.Cl (single isomer, unassigned) [Compound 283, 1-(5-methyl-4,5,6,7-tetrahydrobenzo[b]thiophen-5-yl)pyrrolidine hydrochloride]
minimal effective dose [8]: 3 mg/kg | AD [9]: ND (^ <4%) | AG [9]: ND (^ <4%) | AN [9]: ND (^ <4%) | AP [9]: ND (^ <4%) | AX [9]: ND (^ <4%) | CE [9]: ND (^ <4%) | HL [9]: ND (^ <4%) | MS [9]: ND (^ <4%) | PS [9]: ND (^ <4%) | SH [9]: ND (^ <4%) | UK (SmartCube probability class, 3.0 mg/kg dose, i.p. 15 min before the behavioral test, hydrochloride, 3 mg/kg): + (≥4%)

CNC1CCc2cc(C)sc2C1 (single isomer, unassigned) [Compound 29, N, 2-dimethyl-4,5,6,7-tetrahydrobenzothiophen-6-amine hydrochloride]
MED (minimal effective dose) [10]: 1.0 mpk | AG [1]: ND (^ <4%) | AN [1]: ND (^ <4%) | AX [1]: ++ (≥24%) | CE [1]: ND (^ <4%) | HL [1]: ND (^ <4%) | MS [1]: ND (^ <4%) | PS [1]: ND (^ <4%) | SH [1]: ND (^ <4%) | AD [2]: ND (^ <4%) | AP [2]: +++ (≥49%) | UK [2]: + (≥4%)

NC1Cc2ccsc2C1 (stereo not drawn) [Compound 311, 5,6-dihydro-4H-cyclopenta[b]thiophen-5-amine hydrochloride]
minimal effective dose [8]: 3 mg/kg | AD [9]: ++ (≥24%) | AG [9]: ND (^ <4%) | AN [9]: ND (^ <4%) | AP [9]: ND (^ <4%) | AX [9]: ND (^ <4%) | CE [9]: ND (^ <4%) | HL [9]: ND (^ <4%) | MS [9]: ND (^ <4%) | PS [9]: ND (^ <4%) | SH [9]: ND (^ <4%) | UK [9]: +++ (≥49%)

CN(C)C1CCc2sc(Cl)cc2C1 (stereo not drawn) [Compound 189, 2-chloro-N, N-dimethyl-4,5,6,7-tetrahydrobenzothiophen-5-amine hydrochloride]
minimal effective dose [3]: > 3 mg/kg | AD [4]: ND (^ <4%) | AG [4]: ND (^ <4%) | AN [4]: ND (^ <4%) | AP [4]: ND (^ <4%) | AX [4]: ND (^ <4%) | CE [4]: ND (^ <4%) | HL [4]: ND (^ <4%) | MS [4]: ND (^ <4%) | PS [4]: ND (^ <4%) | SH [4]: ND (^ <4%) | UK [4]: ++ (≥24%)

CNC1CCc2csc(C(F)(F)F)c2C1 (single isomer, unassigned) [Compound 62, N-methyl-3-(trifluoromethyl)-4,5,6,7-tetrahydro-2-benzothiophen-5-amine hydrochloride]
MED (minimal effective dose) [10]: 1 mpk | AG [1]: ND (^ <4%) | AN [1]: ND (^ <4%) | AX [1]: ND (^ <4%) | CE [1]: ND (^ <4%) | HL [1]: ND (^ <4%) | MS [1]: ND (^ <4%) | PS [1]: ND (^ <4%) | SH [1]: ND (^ <4%) | UK [1]: ND (^ <4%) | AD [2]: ++++ (≥74%) | AP [2]: + (≥4%)

CNC1CCc2c(csc2C(F)(F)F)C1 (single isomer, unassigned) [Compound 64, N-methyl-1-(trifluoromethyl)-4,5,6,7-tetrahydro-2-benzothiophen-5-amine hydrochloride]
MED (minimal effective dose) [10]: 10 mpk | AD [1]: + (≥4%) | AG [1]: ND (^ <4%) | AN [1]: ND (^ <4%) | AP [1]: ND (^ <4%) | CE [1]: ND (^ <4%) | HL [1]: ND (^ <4%) | PS [1]: ND (^ <4%) | SH [1]: ND (^ <4%) | AX [2]: ND (^ <4%) | MS [2]: ND (^ <4%) | UK [2]: ++ (≥24%)

CNC1CCc2sc(C)cc2C1 (single isomer, unassigned) [Compound 223, N, 2-dimethyl-4,5,6,7-tetrahydrobenzothiophen-5-amine hydrochloride]
minimal effective dose [3]: > 3 mg/kg | AD [4]: ND (^ <4%) | AG [4]: ND (^ <4%) | AN [4]: ND (^ <4%) | AX [4]: ND (^ <4%) | CE [4]: ND (^ <4%) | HL [4]: ND (^ <4%) | MS [4]: ND (^ <4%) | PS [4]: ND (^ <4%) | SH [4]: ND (^ <4%) | AP [7]: ND (^ <4%) | UK [7]: ++ (≥24%)

CNC1CCc2sc(C)cc2C1 (stereo not drawn) [Compound 197, N, 2-dimethyl-4,5,6,7-tetrahydrobenzothiophen-5-amine hydrochloride]
minimal effective dose [3]: 3 mg/kg | AD [4]: ND (^ <4%) | AG [4]: ND (^ <4%) | AN [4]: ND (^ <4%) | AP [4]: ND (^ <4%) | AX [4]: ND (^ <4%) | CE [4]: ND (^ <4%) | HL [4]: ND (^ <4%) | MS [4]: ND (^ <4%) | PS [4]: ND (^ <4%) | SH [4]: ND (^ <4%) | UK [4]: +++ (≥49%)
